PubChem BioAssay (NCI)
“And” between values parts separate entries of the source, which are not always exact repeats. Equal values may be shown once.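 Compound exposure: 48 hours, 5 concentrations, 96-well plates. GI50 marks 50% less growth. At the TGI there is no net growth.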

Legend:
Experiment in all cases: NCI-60 cell line screen, 48 h
[1] = test system: HL-60(TB) leukemia
[2] = test system: HCT-116 colon
[3] = test system: M14 melanoma
[4] = test system: COLO 205 colon
[5] = test system: SK-MEL-28 melanoma
[6] = test system: U251 CNS
[7] = test system: NCI-H23 lung
[8] = test system: LOX IMVI melanoma
[9] = test system: SK-MEL-5 melanoma

SMILES | TGI [1] | TGI [2] | TGI [3] | TGI [4] | TGI [5] | TGI [6] | TGI [7] | GI50 [8] | TGI [8] | GI50 [2] | GI50 [3] | GI50 [4] | TGI [9] | GI50 [5] | GI50 [6] | GI50 [7] | GI50 [1] | GI50 [9]
N#CC(C(=O)/C(=N\NC(N)=O)C(C#N)c1ccccc1)c1ccccc1 (centres undefined) | > 100 µM | > 100 µM | > 100 µM | > 100 µM | > 100 µM | > 100 µM | > 100 µM |  |  |  |  |  |  |  |  |  |  | 
N/N=C(/Cc1nc2ccc(C(=O)c3ccccc3)cc2[nH]c1=O)C(=O)Nc1ccc([N+](=O)[O-])cc1[N+](=O)[O-] |  | > 100 µM | > 100 µM | > 100 µM | > 100 µM | > 100 µM | > 100 µM | > 100 µM | > 100 µM | > 100 µM | > 100 µM | > 100 µM | > 100 µM | > 100 µM | > 100 µM | > 100 µM |  | 
O=C(c1ccc(Cl)cc1)C(O)c1ccc(Cl)cc1 (centres undefined) | 82.7 µM | > 100 µM | > 100 µM | > 100 µM | > 100 µM | > 100 µM | > 100 µM |  | > 100 µM |  |  |  | > 100 µM |  |  |  |  | 
CCOC(=O)CC(NC(=O)c1[nH]cnc1/N=N/N(C)C)C(=O)OCC (centres undefined) | > 100 µM | > 100 µM | > 100 µM | > 100 µM | > 100 µM | > 100 µM | > 100 µM |  | > 100 µM |  |  |  | > 100 µM |  |  |  |  | 
CC(=O)[CH-]C(=O)c1ccccc1.CC(=O)[CH-]C(=O)c1ccccc1.O=S(=O)([O-])c1cc([O-])c2c([O-])cc(S(=O)(=O)[O-])cc2c1.[Na+].[Zr+4] | > 100 µM | > 100 µM | > 100 µM |  | > 100 µM | > 100 µM |  | > 100 µM | > 100 µM | > 100 µM | 52.2 µM |  | > 100 µM | > 100 µM | > 100 µM |  | > 100 µM | > 100 µM
CCNC(=O)OCc1c(COC(=O)NCC)c(-c2ccc(Cl)c(Cl)c2)n2c1CCC2 | 22.2 µM | 33.6 µM | 24.3 µM | 62.1 µM | 36.9 µM | 28.6 µM | 26.3 µM |  |  |  |  |  | 29.8 µM |  |  |  |  | 
O=C(Nc1ccc(Cl)cc1Cl)OC(Cn1cncn1)c1ccc(Cl)cc1Cl (centres undefined) | > 100 µM | 27.1 µM | 32.1 µM | 31.5 µM | 30.1 µM | 29.7 µM | 28.4 µM |  | 29.9 µM |  |  |  | 30.7 µM |  |  |  |  | 
COC(=O)C1=CC2C=CC(C1C(=O)OC)C1C(C(=O)OC)=C(C(=O)OC)C(C(=O)OC)=C(C(=O)OC)C21OC (centres undefined) | > 100 µM | > 100 µM | > 100 µM | > 100 µM | > 100 µM | > 100 µM | > 100 µM |  | > 100 µM |  |  |  | > 100 µM |  |  |  |  | 
COc1cc(OC)cc(-c2cc(=O)c3cc4c(cc3[nH]2)OCO4)c1 | 0.714 µM | 5.5 µM | > 48.1 µM | 0.471 µM | > 71.7 µM | > 31.9 µM | 9.09 µM |  | > 51.1 µM |  |  |  | 8.23 µM |  |  |  |  | 
O=C(/C=C/c1cccc([N+](=O)[O-])c1)c1ccc([N+](=O)[O-])cc1 | > 100 µM | > 100 µM | > 100 µM | > 100 µM | > 100 µM | > 100 µM | > 100 µM |  | > 100 µM |  |  |  | > 100 µM |  |  |  |  | 
O=C1c2ccccc2C2CCC1c1ccccc12 (centres undefined) | 38 µM | 46.4 µM | > 100 µM | 46.8 µM | > 100 µM | > 100 µM | 65 µM |  | > 100 µM |  |  |  | 34.1 µM |  |  |  |  | 
CN(/N=C/c1ccnc2ccccc12)c1c([N+](=O)[O-])cc([N+](=O)[O-])cc1[N+](=O)[O-] | 61.2 µM |  | > 100 µM | > 100 µM | > 100 µM | > 100 µM | > 100 µM |  | > 100 µM |  |  |  | > 100 µM |  |  |  |  | 
CNS(=O)(=O)NNS(=O)(=O)c1ccc(OC)cc1 | > 100 µM | > 100 µM | > 100 µM | > 100 µM |  | > 100 µM | > 100 µM |  | > 100 µM |  |  |  | > 100 µM |  |  |  |  | 
CC1NC(=O)C2=C1C(=O)NC(=O)C2 (centres undefined) | > 100 µM | > 100 µM | > 100 µM |  |  |  | > 100 µM | > 100 µM | > 100 µM | > 100 µM | > 100 µM |  | > 100 µM |  |  | > 100 µM | > 100 µM | > 100 µM
CC1C2C=C(O)C(=O)C(C2=O)C1c1ccccc1 (centres undefined) |  |  | > 100 µM | > 100 µM | > 100 µM | > 100 µM | > 100 µM |  | > 100 µM |  |  |  | > 100 µM |  |  |  |  | 
COc1c(-c2ccccc2)nc2ccc(Oc3ccccc3)nn12 | > 57.3 µM | > 100 µM | > 100 µM | > 65 µM | 99.5 µM | > 100 µM | > 96.5 µM |  | > 100 µM |  |  |  | > 63.2 µM |  |  |  |  | 
CC(=O)c1cc(C(=O)c2ccc3c(c2)Sc2ccccc2N3)n2ccccc12 | 0.0056 µM |  | > 33.2 µM | 0.0213 µM and 0.00993 µM | > 33.2 µM | 16.4 µM | > 33.2 µM | 0.00587 µM and 0.00332 µM | > 33.2 µM | 0.00398 µM and 0.00332 µM | 0.00338 µM and 0.00332 µM | 0.00327 µM and 0.00332 µM | 0.818 µM and 0.742 µM |  | 0.00492 µM and 0.00332 µM | 0.00773 µM and 0.00332 µM | 0.00237 µM | 0.00526 µM and 0.00332 µM
Cn1cc2ccccc2c1-c1nc(F)nc(Oc2ccc3c(c2)CC[C@@H]2C3CC[C@@]3(C)C2C[C@H](O)[C@@H]3O)n1 (some centres undefined) | 43.7 µM | 28.1 µM | 32.2 µM | 32.4 µM | 38.9 µM | 23.5 µM | 42.9 µM |  |  |  |  |  | 36.8 µM |  |  |  |  | 
COC(=O)C1C(=O)O[C@@H](c2cc(OC)c(OC)cc2OC)C1C(=O)OC (mixture of isomers) | > 100 µM | > 100 µM | > 100 µM | > 100 µM | > 100 µM | > 100 µM | > 100 µM |  | > 100 µM |  |  |  | > 100 µM |  |  |  |  | 
O=C(c1ccc(Cl)cc1)c1ccc(OCCCOc2ccc(C(=O)c3ccc(Cl)cc3)cc2Cl)c(Cl)c1 | > 100 µM | > 100 µM | > 100 µM | > 100 µM | > 100 µM | > 100 µM | > 100 µM |  | > 100 µM |  |  |  | > 100 µM |  |  |  |  | 
O=C1C2C3CC(C4C5C=CC(C5)C34)C2C2C3CC(C12)C1C2C=CC(C2)C31 (centres undefined) | > 100 µM | > 100 µM | > 100 µM | > 100 µM | > 100 µM | > 100 µM | > 100 µM |  | > 100 µM |  |  |  | > 100 µM |  |  |  |  | 
O=C(/C=C\c1cccc2ccccc12)c1ccc(Cl)cc1Cl | 41.1 µM | 33.6 µM | 41.3 µM | 45.5 µM | 38.4 µM | 30.7 µM | > 100 µM |  |  |  |  |  | > 100 µM |  |  |  |  | 
COC1(OC)C2(Cl)C(Cl)=C(Cl)C1(Cl)C1C2C2CC1(C(=O)O)c1ccccc12 (centres undefined) | 43.1 µM | 33.8 µM | 32 µM | 51.1 µM | 38.9 µM | 35.5 µM | 28.4 µM |  | 32 µM |  |  |  | 30.5 µM |  |  |  |  | 
COC1OC2COC(C)(C)OC2C(OC(C)=O)C1NC(=O)N(CCCl)N=O (centres undefined) | 53.3 µM | > 100 µM | > 100 µM | > 100 µM | > 100 µM | > 100 µM | > 100 µM |  | > 100 µM |  |  |  | > 100 µM |  |  |  |  | 
CC(=O)[C@H]1CCC2[C@@H]3CC=C4C[C@@H]([O-])CC[C@]4(C)C3CC[C@@]21C.CC(=O)[C@H]1CCC2[C@@H]3CC=C4C[C@@H]([O-])CC[C@]4(C)C3CC[C@@]21C.CC(=O)[CH-]C(=O)c1ccccc1.CC(=O)[CH-]C(=O)c1ccccc1.Cl.[Ti+4] (some centres undefined) | > 100 µM | > 100 µM | 46.1 µM | > 100 µM |  |  | 29.5 µM | 29 µM | > 100 µM | 25.7 µM | 18.8 µM | 39.3 µM | > 100 µM |  |  | 13.4 µM | 4.64 µM | 18.3 µM
CC(=O)[CH-]C(=O)c1ccccc1.CC(=O)[CH-]C(=O)c1ccccc1.CC(=O)[CH-]C(=O)c1ccccc1.[Nd+3].[OH3+] | > 100 µM | > 100 µM | > 100 µM | > 100 µM | > 100 µM | > 100 µM | > 100 µM |  |  | 46.7 µM | 43.2 µM | 47.3 µM | > 100 µM | 66.9 µM | 37 µM | 37.8 µM | 30.1 µM | 38.1 µM
COc1cc(/C=N/N=C(\N)NO)c(Cl)cc1O |  | > 100 µM |  | > 100 µM | > 100 µM | > 100 µM | > 100 µM |  | > 100 µM |  |  |  | > 100 µM |  |  |  |  | 
NC1=NN(c2ccccc2)C(=O)C1C(=O)C(=O)Nc1ccc(Cl)c(Cl)c1 (centres undefined) | > 100 µM | > 100 µM | > 100 µM | > 100 µM | > 100 µM | > 100 µM | > 100 µM |  |  |  |  |  | > 100 µM |  |  |  |  | 
COC(=O)[C@@]12CC(C(C)C)[C@H]3CC(C(=O)C=C1OC)[C@H]32 (some centres undefined) | > 100 µM | > 100 µM | > 100 µM | > 100 µM | > 100 µM | > 100 µM | > 100 µM |  |  |  |  |  | > 100 µM |  |  |  |  | 
COc1ccc(OC)c(/C=N/N=C(\N)NO)c1 | > 100 µM | > 100 µM | 89.4 µM | 66.2 µM | > 100 µM | > 100 µM | > 100 µM |  | > 100 µM |  |  |  |  |  |  |  |  | 
